From US20210236412A1, “COSMETIC COMPOSITION OF NON-AQUEOUS THIXOTROPIC NAIL VARNISH CONTAINING A NAIL-HARDENING AGENT, USE AND IMPLEMENTATION METHOD” (FIABILA, priority 2018, published 2021)

Experiments:
[1] = Sedimentation stability and color fastness of tinted varnish; type: physicochemical; conditions: 0.1% by weight in the varnish; one month at 45° C.
nails of the hand = assay: In vivo test of nail hardening on panels of 30 persons; design: species or system human; conditions: 0.05% by weight in the varnish composition, three weeks
Description: The varnish was applied under normal conditions of use (namely one application every three days, after having removed the previous varnish). Comparative composition 5 contained 0.05% of hexane, comparative composition 6 contained 0.05% by weight of citral, comparative composition 9 contained 0.05% by weight of caproic acid and composition 7 according to the present invention contained 0.05% by weight of sorbic acid. […] The respective compositions and also the results of the physical tests and observed by the panelists are collated in table 2 hereinafter.

[2] = type: physicochemical
Experimental: (§1) Various cosmetic compositions in the form of nail varnish of the organic-solvent-based varnish type were prepared and applied to nails. The tests hereinafter were performed on these varnishes: • Gloss: 100 μm of varnish was applied to a Leneta-type panel. After drying, the gloss was measured at an angle of incidence of 60° using a Minolta 268 glossmeter. • Flexibility: An aluminum plate covered with a varnish of 300 μm wet is subjected to a slow stamping and the depth of the penetration is measured (ISO1520). • Varnish hardness: It was measured using a Persoz pendulum on a glass plate covered with a varnish with a thickness of 100 μm wet, after drying at room temperature, according to the ISO1522 standard. • Adhesion: A “cross hatch test” is carried out on a glass plate. A score of 0 corresponds to an absence of loss of adhesion. A score of 5 corresponds to a total loss of adhesion. • Solids content: Between 0.5 and 1 g of varnish is poured into a dish. […] The stability of this shade, and more specifically the appearance or not of any syneresis, is observed. • Odor: The odor of the varnish is compared to that of a varnish not containing any hardening agent. • Viscosity: The viscosity of the product is measured at 25° C. using a Brookfield viscometer. […]

[3] = Viscosity, Brookfield viscometer; type: physicochemical; conditions: concentrations of less than 1% by weight
Experimental: as §1

| discoloration of the shade [1] | influence on the stability of the varnish composition [2] | maximum amount that can be incorporated into the varnish without causing yellowing [2] | influence on the viscosity of the varnish composition [3] | Structure (SMILES) | subjects who found an overall improvement in the quality and the hardness of their nails (nails of the hand) |
| --- | --- | --- | --- | --- | --- |
| discolors the Pigment Red 34 | – | – | – | O=P(O)(O)O [Phosphoric acid] | – |
| – | does not have any influence | less than 1 % by weight | does not have any influence | C/C=C/C=C/C(=O)O [sorbic acid] | more than 83% |
